Results: PMC10096180, “Half-Sandwich Type Platinum-Group Metal Complexes of C-Glucosaminyl Azines: Synthesis and Antineoplastic and Antimicrobial Activities” (Molecules, 2023)
Like-named read-outs stand apart in the source and are kept apart here.

What was measured:
[1] = system: Enterococcus faecalis (ATCC29212); assay: Broth microdilution MIC, reference strain; type: cell-based; conditions: 24 h, tested range 0.08–40 μM, read-out: MIC E. faecalis ATCC 29,212
Procedure, shortened: (§1)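 EUCAST broth microdilution in Mueller–Hinton broth, inoculum 5.0 × 10^5 CFU/mL, compounds at 0.08–40 μM (twofold dilutions), 24 h at 37 °C. Plates read visually; MIC taken as lowest concentration giving ≥50% inhibition versus drug-free growth control.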

[2] = system: Staphylococcus aureus (ATCC29213); assay: Broth microdilution MIC, reference strain; type: cell-based; conditions: 0.08–40 μM, read-out: MIC S. aureus ATCC 29213
Procedure, shortened: as §1

A2780 cells [3] = assay: MTT reduction assay, early toxicity, 4 h treatment; type: cell-based
Procedure, shortened: (§2)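 Cells plated the day before, exposed to compounds for 4 h, then MTT 0.5 mg/mL for 40–60 min at 37 °C; reduced dye dissolved in DMSO, read at 540 nm relative to vehicle wells. IC50 by four-parameter fit; otherwise % inhibition at 100 μM.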

[4] = system: primary human dermal fibroblasts; assay: MTT reduction assay, early toxicity, 4 h treatment; type: cell-based; conditions: up to 100 μM
Procedure, shortened: as §2

[5] = system: methicillin-resistant Staphylococcus aureus (MRSA) clinical isolates; assay: Broth microdilution MIC, clinical MRSA isolates; type: cell-based; conditions: 24 h, 0.08–40 μM
Procedure, shortened: (§3)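 S. aureus and E. faecium clinical isolates (Debrecen, 2018–2020; MALDI-TOF-identified) tested by EUCAST broth microdilution in Mueller–Hinton broth at 5.0 × 10^5 CFU/mL across 0.08–40 μM (twofold). After 24 h at 37 °C, visually read; MIC is the lowest concentration giving ≥50% inhibition versus growth control. At least two runs in duplicate.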

A2780 cells [6] = assay: SRB binding assay, cytostasis, 48 h treatment; type: cell-based; conditions: for A2780 SRB Max Inhibition: up to 100 μM, ND = not detectable
Procedure, shortened: (§4)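 Ovarian cancer A2780 cells and primary human dermal fibroblasts treated 48 h, TCA-fixed, SRB-stained, absorbance at 540 nm relative to vehicle. IC50 from four-parameter fit when a plateau was reached or inhibition exceeded 90%; otherwise percent inhibition at 100 μM.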

[7] = system: vancomycin-resistant Enterococcus (VRE) clinical isolates; assay: Broth microdilution MIC, clinical VRE isolates; type: cell-based, E. faecium; conditions: 24 h, 0.08–40 μM
Procedure, shortened: as §3

U251 cells = assay: SRB assay, 48 h; type: cell-based
Protocol: (§5) Figure 8 Assessment of free ligand 3a and complex Ru-3a for cytostatic activity in multiple carcinomas. […] Cells were treated with the compounds in the concentrations indicated for 48 h; then, an SRB assay was performed. Data are represented as average ± SD from three biological replicates; individual assays were performed in duplicates. Values were normalized for vehicle-treated cells; absorbance for vehicle-treated cells equals 1. Statistical significance was assessed using a one-way ANOVA test comparing all values to the lowest concentration of a compound. Before the test, normality was assessed using the Shapiro–Wilk test, and the post hoc test was chosen accordingly. […] An SRB assay measures protein content of cells in correlation with the cell number in an assay well and can therefore be used to assess cell proliferation or long-term cytostasis. Cells were seeded in 96-well plates the day before the assay. Cells were treated with the compounds for 48 h. Then medium was removed, and cells were fixed with 10% trichloroacetic acid. […] Stained cells were washed in 1% acetic acid 5 times; acetic acid was removed, and cells were left to dry. Protein-bound SRB was released by adding 100 μL 10 mM Tris base. Plates were measured in a plate photometer (Thermo Scientific Multiscan GO spectrophotometer, Waltham, MA, USA) at 540 nm. On each plate, wells were designed to contain vehicle-treated cells. […] Statistical analysis was performed using version 8.0.1 of GraphPad Prism. Values were tested for normal distribution using the Shapiro–Wilk normality test. […] In other cases, the percentage of inhibition was taken for the maximum concentration (100 μM).

MCF7 cells = assay: SRB assay, 48 h; type: cell-based
Protocol: as §5

Capan2 cells = assay: SRB assay, 48 h; type: cell-based
Protocol: as §5

ID8 cells = assay: SRB assay, 48 h; type: cell-based
Protocol: as §5

A2780 (ovarian) = conditions: Figure 1, complex Ia; read-out: IC50 A2780 (ovarian, cisplatin resistant); cited from earlier work
Saos (sarcoma) = system: Saos (sarcoma); parameters: method as in PMID 36793764, PMID 34638791, PMID 35054999; conditions: Figure 1, complex Ia; cited from earlier work
ID8 (ovarian) = system: ID8 (ovarian); parameters: method as in PMID 36793764, PMID 34638791, PMID 35054999; conditions: Figure 1, complex Ia; cited from earlier work
[8] = system: Gram-positive multiresistant bacteria (Staphylococcus aureus, Enterococcus species); parameters: method as in PMID 35494644, PMID 36793764; conditions: Figure 1, Staphylococcus aureus; cited from earlier work
[9] = system: Capan2 (pancreatic adenocarcinoma); parameters: method as in PMID 36793764, PMID 34638791, PMID 35054999; conditions: Figure 1, complex Ia; cited from earlier work
[10] = Distribution coefficient (logD), n-octanol-PBS; type: physicochemical; conditions: n-octanol-PBS (pH = 7.4) system
Protocol: The logD values of the newly synthesized complexes were determined according to a procedure described in our previous publications. page 64: Ir-7b +1.17 Rh-7b +1.41 Ru-7c +1.31 Os-7c +1.59 Ir-7c +1.40 Rh-7c +1.13 Ru-7d +1.26 Os-7d +1.42 Ir-7d +1.30 Rh-7d +1.04 Ru-7e +2.22 Os-7e +2.21 Ir-7e +1.39 Rh-7e +1.66 *logD was determined in an n-octanol-PBS (pH = 7.4) system 64 (14 pictures or pasted objects on this page, not shown here)

[11] = system: primary human dermal fibroblasts; assay: SRB binding assay, cytostasis, 48 h treatment; type: cell-based; conditions: up to 100 μM, ND = not detectable
Procedure, shortened: as §4

[12] = inhibition at maximum concentration (100 μM) where no plateau, ND = not detectable
[13] = clinical isolate 20,426 MRSA, read-out: MIC 20,426 MRSA
[14] = clinical isolate 24,035 MRSA, read-out: MIC 24,035 MRSA
[15] = clinical isolate 24,268 MRSA, read-out: MIC 24,268 MRSA
[16] = clinical isolate 24,272 MRSA, read-out: MIC 24,272 MRSA
[17] = clinical isolate 24,328 MRSA, read-out: MIC 24,328 MRSA
[18] = clinical isolate 24,408 MRSA, read-out: MIC 24,408 MRSA
[19] = clinical isolate 25,051 VRE, read-out: MIC 25,051 VRE
[20] = clinical isolate 25,498 VRE, read-out: MIC 25,498 VRE
[21] = clinical isolate 27,085 VRE, read-out: MIC 27,085 VRE

## N[C@@H]1[C@@H](OCc2ccccc2)[C@H](OCc2ccccc2)[C@@H](COCc2ccccc2)O[C@H]1c1ccccn1 [Complex 3a, 2-(2′-Amino-2′-deoxy-3′,4′,6′-tri-O-benzyl-β-D-glucopyranosyl)pyridine]
[1]; Enterococcus faecalis
  MIC: > 40 µM
[2]; Staphylococcus aureus, ATCC29213, 24 h
  MIC: > 40 µM
A2780 cells [3]; Homo sapiens, inhibition at maximum concentration (100 μM) where no plateau, ND = not detectable, read-out: A2780 MTT Max Inhibition
  inhibition at 100 µM: 70.2%
[4]
  Fibroblast MTT Max Inhibition: 32.22%
[5]; Staphylococcus aureus, clinical isolate 20,426 MRSA, read-out: MIC 20,426 MRSA
  MIC: > 40 µM
[5]; Staphylococcus aureus, clinical isolate 24,035 MRSA, read-out: MIC 24,035 MRSA
  MIC: > 40 µM
[5]; Staphylococcus aureus, clinical isolate 24,268 MRSA, read-out: MIC 24,268 MRSA
  MIC: > 40 µM
[5]; Staphylococcus aureus, clinical isolate 24,272 MRSA, read-out: MIC 24,272 MRSA
  MIC: > 40 µM
[5]; Staphylococcus aureus, clinical isolate 24,328 MRSA, read-out: MIC 24,328 MRSA
  MIC: > 40 µM
[5]; Staphylococcus aureus, clinical isolate 24,408 MRSA, read-out: MIC 24,408 MRSA
  MIC: > 40 µM
A2780 cells [6]
  IC50: 36.2 µM
  A2780 SRB Max Inhibition: >90%
A2780 cells [6]; Homo sapiens, A2780, 48 h
  IC50: > 30 µM
[7]; Enterococcus, clinical isolate 25,051 VRE, read-out: MIC 25,051 VRE
  MIC: > 40 µM
[7]; Enterococcus, clinical isolate 25,498 VRE, read-out: MIC 25,498 VRE
  MIC: > 40 µM
[7]; Enterococcus, clinical isolate 27,085 VRE, read-out: MIC 27,085 VRE
  MIC: > 40 µM
U251 cells
  U251 SRB Max Inhibition: >90%
MCF7 cells
  MCF7 SRB Max Inhibition: >90%
Capan2 cells
  Capan2 SRB Max Inhibition: >90%
  IC50: 15 µM
Capan2 cells; Homo sapiens, Capan-2, 48 h
  IC50: 10 to 30 µM
ID8 cells
  IC50: 13.1 µM
  ID8 SRB Max Inhibition: >90%
ID8 cells; Mus musculus, ID8, 48 h
  IC50: 10 to 30 µM

## Cc1ccc(C(C)C)cc1.F[P-](F)(F)(F)(F)F.O=C(OCC1OC(n2cc(-c3ccc4ccccc4n3)nn2)C(OC(=O)c2ccccc2)C(OC(=O)c2ccccc2)C1OC(=O)c1ccccc1)c1ccccc1.[Cl][Os+] (stereo not shown) [Ia]
A2780 (ovarian)
  IC50: 430 nM
Saos (sarcoma)
  IC50: 1290 nM
ID8 (ovarian)
  IC50: 360 nM
[8]
  MIC on Gram-positive multiresistant bacteria: 5 to 20 µM
[9]
  IC50: 1350 nM

## Cc1ccc(C(C)C)cc1.F[P-](F)(F)(F)(F)F.N[C@@H]1[C@@H](OC(=O)c2ccccc2)[C@H](OC(=O)c2ccccc2)[C@@H](COC(=O)c2ccccc2)O[C@H]1c1ccccn1.[Cl][Os+] [Os-7a]
[1]
  MIC: 5 µM
[2]; 24 h
  MIC: 10 µM
[10]
  logD: 2.15
A2780 cells [3]
  IC50: 13.8 µM
A2780 cells [3]; [12]
  A2780 MTT Max Inhibition: >90%
[4]
  Fibroblast MTT Max Inhibition: 65.18%
[5]; [13]
  MIC: 10 µM
[5]; [14]
  MIC: 10 µM
[5]; [15]
  MIC: 5 µM
[5]; [16]
  MIC: 5 µM
[5]; [17]
  MIC: 5 µM
[5]; [18]
  MIC: 5 µM
A2780 cells [6]
  IC50: 8.58 µM
  A2780 SRB Max Inhibition: >90%
[11]
  Fibroblast SRB Max Inhibition: 49.00%
[7]; [19]
  MIC: 5 µM
[7]; [20]
  MIC: 5 µM
[7]; [21]
  MIC: 10 µM

## Cc1c(C)c(C)[c-](C)c1C.F[P-](F)(F)(F)(F)F.N[C@@H]1[C@@H](OC(=O)c2ccccc2)[C@H](OC(=O)c2ccccc2)[C@@H](COC(=O)c2ccccc2)O[C@H]1c1ccccn1.[Cl][Rh+2] [Rh-7a]
[1]
  MIC: >40 µM
[2]; 24 h
  MIC: >40 µM
[10]
  logD: 1.20
A2780 cells [3]; [12]
  A2780 MTT Max Inhibition: 35.97%
[4]
  Fibroblast MTT Max Inhibition: 27.02%
[5]; [13]
  MIC: >40 µM
[5]; [14]
  MIC: >40 µM
[5]; [15]
  MIC: >40 µM
[5]; [16]
  MIC: >40 µM
[5]; [17]
  MIC: >40 µM
[5]; [18]
  MIC: >40 µM
A2780 cells [6]
  IC50: 18.2 µM
  A2780 SRB Max Inhibition: >90%
[11]
  Fibroblast SRB Max Inhibition: 32.56%
[7]; [19]
  MIC: >40 µM
[7]; [20]
  MIC: >40 µM
[7]; [21]
  MIC: >40 µM

## Cc1ccc(C(C)C)cc1.F[P-](F)(F)(F)(F)F.N[C@@H]1[C@@H](OC(=O)c2ccccc2)[C@H](OC(=O)c2ccccc2)[C@@H](COC(=O)c2ccccc2)O[C@H]1c1ccccn1.[Cl][Ru+] [Ru-7a]
[1]
  MIC: 5 µM
[2]; 24 h
  MIC: 5 µM
[10]
  logD: 1.15
A2780 cells [3]
  IC50: 9.15 µM
A2780 cells [3]; [12]
  A2780 MTT Max Inhibition: >90%
[4]
  Fibroblast MTT Max Inhibition: 65.18%
[5]; [13]
  MIC: 5 µM
[5]; [14]
  MIC: 5 µM
[5]; [15]
  MIC: 5 µM
[5]; [16]
  MIC: 5 µM
[5]; [17]
  MIC: 5 µM
[5]; [18]
  MIC: 5 µM
A2780 cells [6]
  IC50: 4.11 µM
  A2780 SRB Max Inhibition: >90%
[11]
  Fibroblast SRB Max Inhibition: 56.31%
[7]; [19]
  MIC: 5 µM
[7]; [20]
  MIC: 5 µM
[7]; [21]
  MIC: 5 µM
